Activity calls are given as the source filed them.
Tests used:
[1] = target: Cysteine protease ATG4B (Homo sapiens, UniProt Q9Y4P1); assay type: functional;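 further: Fluorescence-based dose-response confirmation assay measuring inhibition of ATG4B activity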
[2] = target: Phospholipase A2 (Homo sapiens, UniProt P04054); assay type: functional;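 further: confirmatory dose-response counterscreen on phospholipase A2, testing hits that came from an ultra-high-throughput screen for ATG4B inhibitors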
[3] = test system: Candida albicans; test: reversal of fluconazole resistance in C. albicans, dose response, CaCi-2 strain, Alamar Blue, dry powder, set 3 (AID 488907); assay type: functional, organism-based
[4] = test system: Candida albicans; test: growth inhibition of azole-resistant C. albicans, dose response, CaCi-8 strain, Alamar Blue, dry powder, set 3 (AID 488905); assay type: functional, organism-based
[5] = cells; assay type: functional, cell-based
[6] = test system: INS1; test: beta cell apoptosis inhibitors, cytokine rescue, dose response, luminescence, retest (AID 449756); assay type: functional, cell-based; details: Rattus norvegicus;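 further: cell death triggered by IL-1 beta plus TNF-alpha plus IFN-gamma mixture; protective hits raise ATP signal compared with cytokine alone wells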
[7] = test system: HEK293; test: cytotoxicity in HEK293T NF-kB-Luc cells, SAR follow-up, cytotoxicity control for NF-kB activator project, cell-based, resazurin fluorescence (AID 493251); assay type: functional; details: Homo sapiens
[8] = test system: BJ; test: cells; assay type: functional, cell-based; details: Homo sapiens
[9] = test system: HEK293; test: SAR Analysis of small molecule inhibitors of T-cell specific antigen receptor-induced NF-kB activation in a HEK-293T cell line using a luminescence assay - Set 2. [Related pubchem assays (depositor defined):AID435003, AID435012, AID489026]; assay type: functional, cell-based; details: Homo sapiens
[10] = inhibitors of intracellular T. cruzi replication, confirmation, NIH3T3 host cells, beta-gal luminescence (AID 2044); assay type: functional, cell-based;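 further: intracellular parasites grown in NIH/3T3 mouse fibroblasts as host cells; luminescent beta-galactosidase reporter signal from transgenic T. cruzi replicating inside host cells; inhibitors lower the luminescence signal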
[11] = cells; assay type: functional, cell-based; remark: listed apart in the source
[12] = target: Paired box protein Pax-8 (Homo sapiens, UniProt Q06710); test: inhibitors of PAX8-driven TPO luciferase reporter, dose response, RMG-I cells, cherry-pick (AID 687027); assay type: functional, cell-based;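 further: luciferase reporter driven by Pax8 target thyroperoxidase promoter measured by SteadyGlo luminescence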
[13] = HepG2 cell cytotoxicity, dose response, cytotoxicity control for Shn3 inhibitor project, CellTiter-Glo, cherry-picked (AID 624134); assay type: functional, cell-based
[14] = control 3'UTR Renilla luciferase suppression, dose response, counter-screen for Shn3 inhibitor project, cell-based, Clone20-Shn3RL, cherry-picked (AID 624133); assay type: functional
[15] = target: Exodeoxyribonuclease V (Escherichia coli (strain K12), UniProt P04993+P07648+P08394); test: E. coli RecBCD inhibitors, dose response, counter-screen for AddAB inhibitor project, absorbance, V66 E. coli, mutant T4 phage (AID 492957); assay type: functional, cell-based, Escherichia coli str. K-12 substr. MG1655
[16] = test system: BJ; test: cytotoxicity toward BJ-TERT-LT-ST fibroblasts, dose response, cell-based, RAS-independent, luminescence (AID 1935); assay type: functional; details: Homo sapiens;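 further: BJ fibroblasts immortalized with TERT plus LT and ST oncogenes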
[17] = target: Heat shock protein HSP 90-alpha (Homo sapiens, UniProt P07900); assay type: functional, organism-based
[18] = cytotoxicity in HEK-293T cells, dose response, cytotoxicity control for TCR NF-kB inhibitor project, luminescence, T-cell screen hits (AID 489026); assay type: functional, cell-based;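 further: cells exposed to compound about 14 hours before the viability readout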
[19] = Shn3 3'UTR reporter inhibitors, dose response, cell-based, Clone20 osteoblasts, firefly luciferase, cherry-picked (AID 624132); assay type: functional;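 further: firefly luciferase luminescence from reporter carrying the Shn3 3'UTR in osteoblasts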
[20] = test system: Jurkat; test: SAR Analysis of small molecule inhibitors of T-cell specific antigen receptor-induced NF-kB activation in a Jurkat cell line using a luminescence assay - Set 2. [Related pubchem assays (depositor defined):AID435003, AID435012, AID465]; assay type: functional, cell-based; details: Homo sapiens
[21] = Counterscreen for AddAB inhibitors: absorbance-based bacterial cell-based high throughput dose response assay for inhibitors of bacterial viability. [Related pubchem assays (depositor defined):AID435030, AID449728, AID449731, AID488942, AID488955, AID488956]; assay type: functional
[22] = test system: BJ; test: cytotoxicity toward BJ-TERT fibroblasts, dose response, cell-based, RAS-independent, luminescence (AID 1933); assay type: functional; details: Homo sapiens
[23] = cytotoxicity toward NIH3T3 fibroblasts, dose response, counter-screen, cell-based, ATP luminescence, mouse fibroblasts (AID 2010); assay type: functional;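 further: cells exposed to compound for about 90 hours before reading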
[24] = cytotoxicity toward DRD oncogenic fibroblasts, dose response, cell-based, non-viral oncogenic, luminescence (AID 1934); assay type: functional; details: Homo sapiens
[25] = test system: HEK293; test: inhibitors of LMP1-driven NF-kB reporter, dose response, cell-based, HEK293, luciferase, cherry-pick (AID 588343); assay type: functional; details: Homo sapiens
[26] = Luminescence-based dose response cell-based high throughput screening assay for cytotoxic compounds using the IEC-6 intestinal epithelial cell line. [Related pubchem assays: 1858 (Summary AID.), 1825 (Counterscreen.), 1907 (Confirmation screen.)]; assay type: functional

Paired box protein Pax-8, sequence (Q06710 whole entry): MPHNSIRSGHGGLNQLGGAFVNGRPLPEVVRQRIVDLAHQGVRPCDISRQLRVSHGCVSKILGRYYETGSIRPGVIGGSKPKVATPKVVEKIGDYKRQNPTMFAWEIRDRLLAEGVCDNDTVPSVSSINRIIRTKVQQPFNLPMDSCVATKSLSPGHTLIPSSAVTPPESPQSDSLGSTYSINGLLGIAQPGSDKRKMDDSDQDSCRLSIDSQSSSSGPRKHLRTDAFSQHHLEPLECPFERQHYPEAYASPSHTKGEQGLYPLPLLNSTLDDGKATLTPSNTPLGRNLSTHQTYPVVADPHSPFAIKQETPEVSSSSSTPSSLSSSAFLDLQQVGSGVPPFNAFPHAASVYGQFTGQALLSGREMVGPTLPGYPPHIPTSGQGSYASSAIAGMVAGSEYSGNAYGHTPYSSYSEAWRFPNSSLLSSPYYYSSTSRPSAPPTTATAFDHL
Cysteine protease ATG4B, sequence (Q9Y4P1 whole entry): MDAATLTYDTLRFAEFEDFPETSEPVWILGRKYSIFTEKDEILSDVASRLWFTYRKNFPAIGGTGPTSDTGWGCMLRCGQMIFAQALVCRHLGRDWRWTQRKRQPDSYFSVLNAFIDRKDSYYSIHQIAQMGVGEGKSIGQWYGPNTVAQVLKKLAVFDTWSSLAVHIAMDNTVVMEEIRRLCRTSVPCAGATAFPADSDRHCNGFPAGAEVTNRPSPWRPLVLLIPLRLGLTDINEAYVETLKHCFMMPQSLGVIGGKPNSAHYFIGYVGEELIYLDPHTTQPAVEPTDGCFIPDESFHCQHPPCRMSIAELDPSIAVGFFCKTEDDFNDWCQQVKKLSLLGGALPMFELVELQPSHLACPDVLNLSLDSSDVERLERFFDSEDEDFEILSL
Exodeoxyribonuclease V, sequence (P04993 whole entry): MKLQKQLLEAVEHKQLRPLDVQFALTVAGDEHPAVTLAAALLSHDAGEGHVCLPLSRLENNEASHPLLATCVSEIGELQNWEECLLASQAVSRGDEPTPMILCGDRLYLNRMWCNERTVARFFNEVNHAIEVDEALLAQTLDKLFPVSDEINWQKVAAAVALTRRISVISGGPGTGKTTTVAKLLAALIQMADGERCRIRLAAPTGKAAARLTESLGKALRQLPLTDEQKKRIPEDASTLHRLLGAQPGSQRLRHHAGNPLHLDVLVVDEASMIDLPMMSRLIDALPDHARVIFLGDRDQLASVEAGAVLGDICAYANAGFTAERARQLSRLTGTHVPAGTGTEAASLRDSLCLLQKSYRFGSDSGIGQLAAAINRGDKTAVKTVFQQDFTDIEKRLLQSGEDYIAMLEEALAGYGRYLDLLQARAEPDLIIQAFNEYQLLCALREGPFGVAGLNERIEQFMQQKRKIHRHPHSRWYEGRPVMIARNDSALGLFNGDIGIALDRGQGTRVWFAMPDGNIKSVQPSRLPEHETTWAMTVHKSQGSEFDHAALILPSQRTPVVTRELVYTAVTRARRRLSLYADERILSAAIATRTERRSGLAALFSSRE
Exodeoxyribonuclease V, sequence (P07648 whole entry): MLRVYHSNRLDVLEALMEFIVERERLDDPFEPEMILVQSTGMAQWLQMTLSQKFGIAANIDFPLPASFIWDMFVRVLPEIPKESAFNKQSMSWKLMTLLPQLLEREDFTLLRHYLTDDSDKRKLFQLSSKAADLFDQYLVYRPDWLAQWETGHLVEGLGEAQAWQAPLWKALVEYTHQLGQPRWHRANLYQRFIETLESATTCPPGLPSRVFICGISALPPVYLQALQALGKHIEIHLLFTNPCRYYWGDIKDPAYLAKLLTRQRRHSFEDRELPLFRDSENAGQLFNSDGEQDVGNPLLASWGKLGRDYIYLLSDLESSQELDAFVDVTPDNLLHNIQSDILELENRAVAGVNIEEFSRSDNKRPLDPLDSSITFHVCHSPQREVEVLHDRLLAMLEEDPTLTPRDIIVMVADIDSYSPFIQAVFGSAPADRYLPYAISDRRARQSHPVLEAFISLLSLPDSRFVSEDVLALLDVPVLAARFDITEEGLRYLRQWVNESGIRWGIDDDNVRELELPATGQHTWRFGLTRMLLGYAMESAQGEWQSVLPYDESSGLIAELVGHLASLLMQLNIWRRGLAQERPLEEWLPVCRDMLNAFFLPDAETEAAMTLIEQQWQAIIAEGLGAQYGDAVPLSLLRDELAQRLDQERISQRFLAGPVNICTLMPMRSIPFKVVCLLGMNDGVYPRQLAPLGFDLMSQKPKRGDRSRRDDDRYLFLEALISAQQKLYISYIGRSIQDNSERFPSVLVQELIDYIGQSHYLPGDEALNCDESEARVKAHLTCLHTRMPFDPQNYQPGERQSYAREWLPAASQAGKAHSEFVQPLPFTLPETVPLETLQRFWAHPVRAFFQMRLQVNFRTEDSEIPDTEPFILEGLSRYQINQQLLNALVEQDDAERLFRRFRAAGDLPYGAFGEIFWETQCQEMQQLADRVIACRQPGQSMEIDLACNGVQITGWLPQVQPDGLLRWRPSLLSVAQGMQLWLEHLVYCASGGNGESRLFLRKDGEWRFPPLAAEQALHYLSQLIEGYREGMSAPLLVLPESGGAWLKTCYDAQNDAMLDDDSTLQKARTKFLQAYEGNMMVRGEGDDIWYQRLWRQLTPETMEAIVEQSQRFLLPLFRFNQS
Exodeoxyribonuclease V, sequence (P08394 whole entry): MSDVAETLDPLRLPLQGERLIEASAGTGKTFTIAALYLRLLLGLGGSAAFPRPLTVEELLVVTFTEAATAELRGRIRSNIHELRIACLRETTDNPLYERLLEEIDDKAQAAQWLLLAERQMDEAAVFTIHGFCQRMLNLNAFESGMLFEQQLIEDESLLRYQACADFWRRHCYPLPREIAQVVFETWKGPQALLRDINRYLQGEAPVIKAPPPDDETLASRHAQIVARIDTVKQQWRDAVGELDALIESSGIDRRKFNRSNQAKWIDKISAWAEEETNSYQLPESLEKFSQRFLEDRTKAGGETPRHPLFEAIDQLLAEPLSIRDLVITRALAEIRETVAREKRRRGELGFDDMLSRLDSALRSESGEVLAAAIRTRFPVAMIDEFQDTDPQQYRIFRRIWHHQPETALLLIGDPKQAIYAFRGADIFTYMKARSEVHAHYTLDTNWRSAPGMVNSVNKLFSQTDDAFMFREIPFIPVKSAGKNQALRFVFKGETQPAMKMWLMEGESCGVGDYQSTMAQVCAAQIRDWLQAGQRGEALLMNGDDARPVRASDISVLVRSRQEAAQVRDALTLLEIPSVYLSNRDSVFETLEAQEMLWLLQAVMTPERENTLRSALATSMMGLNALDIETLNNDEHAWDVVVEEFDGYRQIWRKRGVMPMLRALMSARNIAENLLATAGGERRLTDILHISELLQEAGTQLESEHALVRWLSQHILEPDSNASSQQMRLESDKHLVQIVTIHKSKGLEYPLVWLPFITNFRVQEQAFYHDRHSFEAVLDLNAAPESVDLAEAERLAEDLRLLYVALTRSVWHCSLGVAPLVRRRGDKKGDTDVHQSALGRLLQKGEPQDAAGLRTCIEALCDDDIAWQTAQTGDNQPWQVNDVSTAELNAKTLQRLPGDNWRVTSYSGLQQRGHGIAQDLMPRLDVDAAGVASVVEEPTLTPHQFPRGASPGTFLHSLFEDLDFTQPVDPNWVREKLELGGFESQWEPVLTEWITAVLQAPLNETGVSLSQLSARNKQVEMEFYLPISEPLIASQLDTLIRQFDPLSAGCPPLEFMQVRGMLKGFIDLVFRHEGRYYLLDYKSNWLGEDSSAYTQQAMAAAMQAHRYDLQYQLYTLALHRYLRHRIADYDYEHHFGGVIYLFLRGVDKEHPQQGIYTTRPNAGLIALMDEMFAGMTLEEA
Phospholipase A2, sequence (P04054 whole entry): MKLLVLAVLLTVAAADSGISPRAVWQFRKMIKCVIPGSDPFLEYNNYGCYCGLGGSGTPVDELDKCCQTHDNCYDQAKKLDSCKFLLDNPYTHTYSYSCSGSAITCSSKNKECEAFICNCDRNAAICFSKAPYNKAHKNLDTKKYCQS

SMILES: Cc1ccc(-n2c(SCC(=O)N/N=C/C=C/c3ccccc3[N+](=O)[O-])nc3ccccc3c2=O)cc1
- IC50 [1]: 6420 nM (active)
- IC50 [2]: 2530 nM (active)

SMILES: O=C(c1ccc(Cl)cc1)N1CCN(c2nc3ccccc3s2)CC1
- AC50 [3]: 1410 nM (active)
- AC50 [4]: 565 nM (active)

SMILES: CC(=O)NC(c1ccc(C(C)C)cc1)c1ccc2cccnc2c1O (stereo unspecified)
- EC50 [5]: 3640 nM (active)
- AC50 [6]: 494 nM (active)
- IC50 [7]: 56100 nM (inactive)
- EC50 [8]: 2290 nM (inconclusive)
- IC50 [9]: 5240 nM (active)
- EC50 [10]: 337 nM (active)
- EC50 [11]: > 350000 nM (not active)
- AC50 [12]: 2030 nM (active)
- AC50 [13]: 1300 nM (active)
- AC50 [14]: 350 nM (active)
- IC50 [15]: > 118000 nM (inactive)
- EC50 [16]: 8470 nM (inconclusive)
- AC50 [17]: 3580 nM (active)
- IC50 [18]: > 80000 nM (inactive)
- AC50 [19]: 528 nM (active)
- IC50 [20]: 2600 nM (active)
- IC50 [21]: > 118000 nM (inactive)
- EC50 [22]: 958 nM (active)
- EC50 [23]: 424 nM (active)
- EC50 [24]: 8180 nM (inconclusive)
- AC50 [25]: 5200 nM (active)
- IC50 [26]: 1360 nM (active)

From ChEMBL document CHEMBL1201862, “PubChem BioAssay data set” (2004)
